In patent EP0080271A1, “Indomethacin phenyl ester derivatives, their use, and compositions containing them” (priority 1981, dated 1983):
Read-outs that look alike come from different tables or passages of the source.

Experiments:
[1] = tested on: rats; assay: ulceration activity: ulcer index 5 hours after oral administration; assay type: in vivo; conditions: sacrificed 5 hours after administration
Description: (§1) Secondly, in order to assess ulceration activity, various compounds (listed in Table 2) were administered orally to a group of rats. The animals were sacrificed 5 hours after administration, and the ulcer index was determined. Compounds were also administered orally to a group of rats for 1 week, and the number of intestinal ulcers was determined. The same compounds were administered orally to a group of rats, the ulcer index being determined by observing the stomach 3 hours after administration.

[2] = LD50 by oral administration in mice; conditions: mouse, in vivo, mice of the stock ddy
Description: LD50 of this compound, determined by means of oral administration in mice of the stock ddy, was 200 mg/kg.

[3] = tested on: edema induced by carrageenin in rat; assay: inhibition of edema induced by carrageenin in rat (hind paw volume); assay type: in vivo; conditions: oral 1 hour before carrageenin injection; for inhibition (%): 3 hours after injection; for edema (%): hind paw volume 3 hours after injection
Description: Firstly, in order to assess anti-inflammatory activity, the inhibition of edema induced by carrageenin in rat was studied. Various compounds (listed in Table 1) were administered orally to a group of rats just 1 hour before a carrageenin injection, and the hind paw volume was measured 3 hours after injection.

[4] = tested on: rats; assay: intestinal ulcers and survival after oral administration for 5 days; assay type: in vivo; conditions: group of 12 rats, oral for 5 days, daily dose 28 µM; for ulceration (%): percentage of surviving animals with ulcers
Description: Each compound listed in Table 5 was administered orally to a group of 12 rats for 5 days, and the number of intestinal ulcers was determined. The degree of ulceration was calculated as a percentage of number of […] surviving animals with respect to the number of surviving animals.

[5] = tested on: rats; assay: ulcer index, stomach observed 3 hours after oral administration; assay type: in vivo; conditions: stomach 3 hours after administration, dose 0.056 mM
Description: as §1

[6] = tested on: rats; assay: number of intestinal ulcers after oral administration for 1 week; assay type: in vivo; conditions: oral for 1 week, dose 15 µM
Description: as §1

[7] = tested on: rats; assay type: in vivo; conditions: group of 10 rats, oral, stomach 24 hours after administration, dose 0.060 mM
Description: Each compound listed in Table 6 was administered orally to a group of 10 rats and the ulcer index was determined by observing the stomach 24 hours after administration.

[8] = tested on: serum esterase; conditions: reported in Ceskoslovenska Farmacie 26 (1977) 6277; cited from earlier work
[9] = versus indomethacin plus salicyl salicylate

## COc1ccc2c(c1)c(CC(=O)Oc1ccccc1C(=O)OCc1ccccc1)c(C)n2C(=O)c1ccc(Cl)cc1 [Example 1, 2-Benzyloxycarbonylphenyll-(p-chlorobenzoyl)-5-methoxy-2-methylindole-3-acetate]
[1]; dose 0.030 mM
  ulcer index (mm): 0.1 ± 0.1 mm

## CCOC(=O)c1ccccc1OC(=O)Cc1c(C)n(C(=O)c2ccc(Cl)cc2)c2ccc(OC)cc12 [Example 2, 2-Ethoxycarbonylphenyl 1-(p-chlorobenzoyl)-5-methoxy-2-methylindole-3-acetate]
[1]; dose 0.030 mM
  ulcer index (mm): 0.2 ± 0.1 mm
[2]
  LD50: 200 mg/kg
[3]; dose 0.015 mM
  inhibition (%): 31.8%
  edema (%): 53.3 ± 8.7%
[3]; dose 0.030 mM
  inhibition (%): 34.7%
  edema (%): 52.9 ± 3.6%

## COc1ccc2c(c1)c(CC(=O)OCC(=O)O)c(C)n2C(=O)c1ccc(Cl)cc1 [Acemethacin, reference compound]
[4]
  number of intestinal ulcers: 11.0
  ulceration (%): 100%

## COc1ccc2c(c1)c(CC(=O)Oc1ccccc1C(=O)Oc1ccccc1C(=O)O)c(C)n2C(=O)c1ccc(Cl)cc1 [Example 5, 2-(2-Hydroxycarbonylphenyl)oxycarbonylphenyll-(p-chlorobenzoyl)-5-methoxy-2-methylindole-3-acetate]
[1]; dose 0.030 mM
  ulcer index (mm): 0.6 ± 0.3 mm
[3]; dose 0.015 mM
  inhibition (%): 42.7%
  edema (%): 46.4 ± 4.8%
[3]; dose 0.030 mM
  inhibition (%): 48.7%
  edema (%): 41.4 ± 5.3%
[4]
  number of intestinal ulcers: 2.4 ± 0.6
  ulceration (%): 75%
[5]
  Ulcer index: 3.7 ± 1.3
[5]; [9]
  inhibition (%): 86.0%
[6]
  number of ulcers: 0.5 ± 2.0
[6]; [9]
  inhibition (%): 98.4%

## COc1ccc2c(c1)c(CC(=O)Oc1ccccc1C(=O)OC(C)(C)C)c(C)n2C(=O)c1ccc(Cl)cc1 [Example 3, 2-t-Butoxycarbonylphenyl 1-(p-chlorobenzoyl)-5-methoxy-2-methlindole-3-acetate]
[1]; dose 0.030 mM
  ulcer index (mm): 0.2 ± 0.1 mm
[3]; dose 0.015 mM
  inhibition (%): 35.8%
  edema (%): 52.0 ± 7.5%
[3]; dose 0.030 mM
  inhibition (%): 34.7%
  edema (%): 52.9 ± 3.6%

## COc1ccc2c(c1)c(CC(=O)Oc1ccccc1C(=O)Oc1ccccc1C(=O)OCc1ccccc1)c(C)n2C(=O)c1ccc(Cl)cc1 [Example 4, 2-(2-Benzyloxycarbonylphenyl)oxycarbonylphenyl 1-(p-chlorobenzoyl)-5-methoxy-2-methylindole-3-acetate]
[1]; dose 0.030 mM
  ulcer index (mm): 0.4 ± 0.3 mm

## COc1ccc2c(c1)c(CC(=O)O)c(C)n2C(=O)c1ccc(Cl)cc1 [Indomethacin]
[1]; dose 0.030 mM
  ulcer index (mm): 5.9 ± 2.5 mm
[1]; dose 21.5 mg/kg (0.060 mM)
  ulcer index (mm): 57.9 ± 6.6 mm
[7]
  ulcer index (mm): 26.5 ± 6.2 mm
[3]; dose 0.015 mM
  inhibition (%): 32.2%
  edema (%): 54.9 ± 6.5%
[3]; dose 0.030 mM
  inhibition (%): 53.5%
  edema (%): 37.7 ± 7.2%
[4]
  number of survival animals: 0

## COc1ccc2c(c1)c(CC(=O)Oc1ccccc1C(=O)O)c(C)n2C(=O)c1ccc(Cl)cc1 [Indomethacin salicylic ester, 2-hydroxycarbonylphenyll-(p-chlorobenzoyl)-5-methoxy-2-methylindole-3-acetate]
[8]
  hydrolysis by serum esterase: hydrolysis by serum esterase
[7]
  ulcer index (mm): 7.1 ± 1.6 mm
[7]; versus indomethacin
  inhibition (%): 73.2%
[3]; dose 0.015 mM
  inhibition (%): 49.4%
  edema (%): 41.0 ± 3.5%
[4]
  number of intestinal ulcers: 5.0 ± 0.4
  ulceration (%): 100%
